According to patent US7049311B1, “Pyrrolbenzodiazepines” (Spirogen Limited, priority 1998, dated 2006):
Where two headings read alike, the source gives them in different places.

How the values were obtained:
[1] = tested on: human ovarian carcinoma cell line A2780; assay: Cytotoxicity in A2780 (Example 9); assay type: cell-based
Description: Relative to the parental line, the A2780cisR subline is known to have elevated GSH levels, an increased level of repair of DNA-cisplatin adducts, and a decreased ability to uptake cisplatin (M. Smellie, et al., Br. J. Cancer, 1994, 70, 48).
The results, which were obtained by incubating the cells with the compounds for 96 hours at 37° C., and assessing the cell number using Sulforhodamine B, are presented in the table below: […]

[2] = tested on: OVCAR-5 (human ovarian tumour); assay: NCI human xenograft study; assay type: in vivo, mice
Description: (§1) These are carried out on nucle athymic mice with a disabled immune system. The human tumour tissue to be tested is implanted in their flanks, and whilst the control mouse receives no treatment, the others are subjected to varying doses of the test compound, which is administered intraperitoneally. The results are expressed as the toxicity of the compound, the amount of tumour growth, and the inhibition of growth.
(§2) Athymic nude mice bearing MDA-MB-435 xenografts (human mammary tumour), Ovcar-3 (human ovarian tumour), UACC-62 (human melanoma) or OVCAR-5 (human ovarian tumour) were treated at doses of 0.67 (high), 0.45 (middle) and 0.3 (low) mg/kg/injection given once every 4th day for a total of 3 doses (6 mice per dose level with 20 controls).
(§3) UP2001 (80) was evaluated by measuring the toxicity of the drug and its ability to retard tumour growth.
(§4) Toxicity represents the number of mice which died as a result of treatment. % T/C represents the width of the tumours in the “test” mice (T) (as measured with calipers) compared to control untreated mice (C) and presented as a percentage. % Growth Delay represents the increase in the amount of time taken for the tumors to reach an arbitrary size of 250 mg.

[3] = tested on: Ovcar-3 (human ovarian tumour); assay: NCI human xenograft study; assay type: in vivo, mice
Description: as §1, §2, §3, §4

[4] = tested on: MDA-MB-435 xenografts (human mammary tumour); assay: NCI human xenograft study; assay type: in vivo, mice
Description: as §1, §2, §3, §4

UACC-62 (human melanoma) = assay: NCI human xenograft study; assay type: in vivo, mice
Description: as §1, §2, §3, §4

NCI-H460 = assay: NCI in vitro cytotoxicity screen; assay type: cell-based; settings: Homo sapiens; NCI-H460 (Lung), 48 hour exposure, SRB assay; read-out: LC50 (the source's name)
How it was run: (§5)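 Human tumour cells were seeded at 5000-40,000 per well and preincubated 24 hours at 37° C. Compounds were added at five 10-fold dilutions (10^−4 to 10^−8 […]) for 48 hours continuous exposure in 5% CO2. Viability was measured by sulphorhodamine B protein staining and optical density, giving LC50 values.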

SNB-75 = assay: NCI in vitro cytotoxicity screen; assay type: cell-based; settings: Homo sapiens, SNB-75, 48 h, read-out: LC50
How it was run: as §5

MALME-3M = assay: NCI in vitro cytotoxicity screen; assay type: cell-based
How it was run: as §5

HCC-2998 = assay: NCI in vitro cytotoxicity screen; assay type: cell-based; settings: Homo sapiens, HCC 2998, 48 h, read-out: LC50
How it was run: as §5

UACC-62 = assay: NCI in vitro cytotoxicity screen; assay type: cell-based
How it was run: as §5

[5] = 0.3 mg/kg/injection once every 4th day, 3 doses
[6] = 0.3 mg/kg/injection once every 4th day, 3 doses, mice which died as a result of treatment
[7] = 0.3 mg/kg/injection, time for tumours to reach 250 mg
[8] = 0.45 mg/kg/injection once every 4th day, 3 doses
[9] = 0.45 mg/kg/injection once every 4th day, 3 doses, mice which died as a result of treatment
[10] = 0.45 mg/kg/injection, time for tumours to reach 250 mg
[11] = 0.67 mg/kg/injection once every 4th day, 3 doses
[12] = 0.67 mg/kg/injection once every 4th day, 3 doses, mice which died as a result of treatment
[13] = 0.67 mg/kg/injection, time for tumours to reach 250 mg
[14] = MDA-MB-435 xenografts, dose not given

## C=C1C[C@H]2C=Nc3cc(OCCCOc4cc5c(cc4OC)C(=O)N4CC(=C)C[C@H]4C=N5)c(OC)cc3C(=O)N2C1 [UP2001 (80)]
[1]; A2780 cell line
  fold increase in cytotoxicity compared to DSB-120: 320 fold
[1]; Homo sapiens, A2780, 96 h, read-out: IC50 A2780
  IC50: 0.023 nM
[2]; OVCAR-5, 0.3 mg/kg/injection once every 4th day, 3 doses
  % T/C Low: 38%
[2]; OVCAR-5, 0.3 mg/kg/injection once every 4th day, 3 doses, mice which died as a result of treatment
  Toxicity Low: 0/6
[2]; OVCAR-5, 0.3 mg/kg/injection, time for tumours to reach 250 mg
  % Growth Delay Low: 32%
[2]; OVCAR-5, 0.45 mg/kg/injection once every 4th day, 3 doses
  % T/C Mid: 45%
[2]; OVCAR-5, 0.45 mg/kg/injection once every 4th day, 3 doses, mice which died as a result of treatment
  Toxicity Mid: 0/6
[2]; OVCAR-5, 0.45 mg/kg/injection, time for tumours to reach 250 mg
  % Growth Delay Mid: 28%
[2]; OVCAR-5, 0.67 mg/kg/injection once every 4th day, 3 doses
  % T/C High: 52%
[2]; OVCAR-5, 0.67 mg/kg/injection once every 4th day, 3 doses, mice which died as a result of treatment
  Toxicity High: 0
[2]; OVCAR-5, 0.67 mg/kg/injection, time for tumours to reach 250 mg
  % Growth Delay High: 16%
[2]; OVCAR-5 xenografts, dose not given
  tumour size reduction: approximately 50%
[3]; [5]
  % T/C Low: 46%
[3]; [6]
  Toxicity Low: 0/6
[3]; [7]
  % Growth Delay Low: 9%
[3]; [8]
  % T/C Mid: 20%
[3]; [9]
  Toxicity Mid: 0/6
[3]; [10]
  % Growth Delay Mid: 73%
[3]; [11]
  % T/C High: 7%
[3]; [12]
  Toxicity High: 0/6
[3]; [13]
  % Growth Delay High: 73%
[4]; MDA-MB-435, 0.3 mg/kg/injection once every 4th day, 3 doses
  % T/C Low: 3%
[4]; MDA-MB-435, 0.3 mg/kg/injection once every 4th day, 3 doses, mice which died as a result of treatment
  Toxicity Low: 2/6
[4]; MDA-MB-435, 0.3 mg/kg/injection, time for tumours to reach 250 mg
  % Growth Delay Low: 41%
[4]; MDA-MB-435, 0.45 mg/kg/injection once every 4th day, 3 doses
  % T/C Mid: 3%
[4]; MDA-MB-435, 0.45 mg/kg/injection once every 4th day, 3 doses, mice which died as a result of treatment
  Toxicity Mid: 1/6
[4]; MDA-MB-435, 0.45 mg/kg/injection, time for tumours to reach 250 mg
  % Growth Delay Mid: 41%
[4]; MDA-MB-435, 0.67 mg/kg/injection once every 4th day, 3 doses
  % T/C High: toxic
[4]; MDA-MB-435, 0.67 mg/kg/injection once every 4th day, 3 doses, mice which died as a result of treatment
  Toxicity High: 3/6
[4]; MDA-MB-435, 0.67 mg/kg/injection, time for tumours to reach 250 mg
  % Growth Delay High: 41%
[4]; [14]
  delay in the time taken to reach tumour mass of 250 mg: 41%
  tumour growth in treated mice as % of the tumour growth in the control population: 3%
UACC-62 (human melanoma); [5]
  % T/C Low: 67%
UACC-62 (human melanoma); [6]
  Toxicity Low: 0/6
UACC-62 (human melanoma); [7]
  % Growth Delay Low: 43%
UACC-62 (human melanoma); [8]
  % T/C Mid: 28%
UACC-62 (human melanoma); [9]
  Toxicity Mid: 0/6
UACC-62 (human melanoma); [10]
  % Growth Delay Mid: 43%
UACC-62 (human melanoma); [11]
  % T/C High: 22%
UACC-62 (human melanoma); [12]
  Toxicity High: 0/6
UACC-62 (human melanoma); [13]
  % Growth Delay High: 43%
NCI-H460
  CC50: 2700 nM
SNB-75
  CC50: 7500 nM
MALME-3M; Homo sapiens, Malme-3M, 48 h, read-out: LC50, MALME-3M (Melanoma), 48 hour exposure, SRB assay
  CC50: 80 nM
MALME-3M; read-out: LC50, MALME-3M (Melanoma), 48 hour exposure, SRB assay
  CC50: 73 nM
HCC-2998
  CC50: 99 nM
UACC-62; Homo sapiens, UACC-62, 48 h, read-out: LC50, UACC-62 (Melanoma), 48 hour exposure, SRB assay
  CC50: 70 nM
UACC-62; read-out: LC50, UACC-62 (Melanoma), 48 hour exposure, SRB assay
  CC50: 77 nM
